Here are results for seven compounds from patent publication US20200055848A1, “FURANONE DERIVATES AND METHODS OF USE THEREOF” (CARNA BIOSCIENCES, INC., priority 2016, published 2020).

The target in data set [1] is T1, human Cdc7/human ASK complex protein (Homo sapiens, UniProt O00311).
T1 construct: purchased Carna Biosciences, Inc
The data set can be described thus: Cdc7/ASK enzymatic assay. The class given is biochemical. The settings on record: 5 μM ATP; mean of duplicated assays; read-out: Cdc7 IC50. As to the method:
Measurement of Cdc7 kinase activity was carried out using MSA assay kit (QuickScout™ Screening Assist Kit, Carna Biosciences, Inc.). Assay buffer (20 mM HEPES, 0.01% Triton X-100™, 2 mM dithiothreitol, pH 7.5) was used to prepare a substrate mixture solution comprising 4 μM of kinase-reaction substrate (FITC-labeled MCM2 peptide), 40 mM MgCl2, and 4 times concentrations of final targeted ATP (5, 100, and 1,000 μM). The enzyme supplied in the kit (human Cdc7/human ASK complex protein) was diluted into the assay buffer to prepare a 7 nM solution (enzyme solution). The compound stock solution was prepared by diluting a 10 mM DMSO solution into the assay buffer (final 4% DMSO). The kinase reaction was performed by mixing of 5 μL of the compound solution, 5 μL of the substrate mixture solution, and 10 μL of the enzyme solution in a 384-well plate. For the pre-incubation assay, the compound solution and the enzyme solution were pre-mixed and incubated at ambient temperature for 30 min before adding into the substrate mixture solution to start enzymatic reaction. After the reaction at 25° C. for 5 hours, 60 μL of the termination buffer (supplied in the kit) was added to stop the reaction. The phosphorylation of substrate was measured using a LabChip EZ Reader II system (Caliper Life Sciences). The percent inhibition (%) by a tested compound was calculated according to the following formula:
Percent inhibition (%)=(1−(C−A)/(B−A))×100
A represents P/(P+S) for a blank well, B represents P/(P+S) for a solvent well, and C represents P/(P+S) for a compound-added well. S: the peak heights of the separated substrate, P: phosphorylated substrate.
The IC50 value of tested compound was calculated by regression analysis of the percent inhibition values versus the (logarithmic) concentration of the tested compound.

Data set [2] in a line: In vitro metabolic stability, human liver microsomes. The data set is classed as in vitro ADME. The settings on record: for HLM % (remaining % of parent compound): 30 min treatment of human liver microsomes. The method, then: (§1) NADPH regeneration system (13 mM NADP, 33 mM Glucose-6-phospate, 33 mM MgCl2, and 4 U/mL of Glucose-6-phosphate dehydrogenase) and liver microsomes (1 mg/mL of HLM (BD Gentest, lot 18888) or MLM (BD Gentest, lot 31197)) in 0.1 M phosphate buffer (pH 7.4) were pre-incubated separately at 37° C. for 20 min before mixing with 1:4 ratio. 50 μL of the mixed solution was added to 50 μL of the test compound (2 μM) to initiate the reaction at 37° C. (final conc. 1 μM test compound, 0.4 mg/mL liver microsomes, and 1.3 mM NADPH). After 30 min, the reactions were stopped by adding 300 μL of cold acetonitrile. For 0 min samples, ice-cold acetonitrile (with system suitability standard) was treated before mixing the test compound and microsomes. The sample were vortexed well and then centrifuged at 3500 rpm at 15° C. for 20 min. 110 μL of supernatant was mixed with 110 μL of water and quantitated by LC-MS/MS workstation (Shimazu Corp.).

Data set [3] is described as follows: In vitro metabolic stability, mouse liver microsomes. The data set is classed as in vitro ADME. Particulars: for MLM % (remaining % of parent compound): 30 min treatment of mouse liver microsomes. The method, then: as §1
For orientation: Liver microsomes are a subcellular fraction often used to study metabolism.

A short description of data set [4]: Stability of the ethyl ester to hydrolysis. The data set is classed as physicochemical. The method, then: Because the ester was expected to form important hydrogen bond with Lys90, an SAR study for the ester group was performed (Table 2). […] Generally esters are labile and can be easily hydrolyzed to the corresponding carboxylic acid. To our surprise, the ethyl ester of 3 was very stable even under strong basic conditions, and it required an extremely strong basic condition (50% w/v KOH aq., reflux) to hydrolyze this ester.
The general procedure for the replacement of R^2 by various groups is shown in Scheme 2. Methyl ester 8 was obtained analogously to ethyl ester 3 from the furanone intermediate 39 which was prepared from methyl 4-chloroacetoacetate 37 and phenyl isocyanate 38 (Scheme 2A). Compound 9 (Scheme 2B) was obtained by hydrolysis of compound 3 under extremely strong basic condition (50% w/v KOH aq., reflux). […] The amide analogs (10-12) were prepared directly by aminolysis of ethyl ester 3 with appropriate amines (Scheme 2C).

The target of data set [5] is T1, human Cdc7/human ASK complex protein. The data set can be described thus: Cdc7/ASK enzymatic assay. The data set is classed as biochemical. The settings on record: 5 μM ATP versus 10 μM ATP as printed.

“And” between values parts separate entries of the source, which are not always exact repeats. Equal entries are not always repeated.

T1 sequence (O00311 whole entry): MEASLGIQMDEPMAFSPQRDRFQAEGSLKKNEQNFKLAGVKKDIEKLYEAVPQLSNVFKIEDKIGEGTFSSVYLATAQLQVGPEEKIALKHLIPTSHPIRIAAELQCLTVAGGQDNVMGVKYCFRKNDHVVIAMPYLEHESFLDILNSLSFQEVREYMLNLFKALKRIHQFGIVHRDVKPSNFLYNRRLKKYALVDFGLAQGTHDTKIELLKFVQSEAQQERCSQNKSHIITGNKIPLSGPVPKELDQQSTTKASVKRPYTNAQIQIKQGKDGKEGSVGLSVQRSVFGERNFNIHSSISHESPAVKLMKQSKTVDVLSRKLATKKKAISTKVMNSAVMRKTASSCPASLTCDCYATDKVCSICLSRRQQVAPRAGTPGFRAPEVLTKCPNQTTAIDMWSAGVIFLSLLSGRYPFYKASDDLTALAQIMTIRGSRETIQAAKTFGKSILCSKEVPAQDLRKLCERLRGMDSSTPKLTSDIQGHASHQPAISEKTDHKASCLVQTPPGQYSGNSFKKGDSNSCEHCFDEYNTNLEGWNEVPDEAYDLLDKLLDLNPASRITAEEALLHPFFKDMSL
T1 sequence (Q9UBU7 whole entry partner): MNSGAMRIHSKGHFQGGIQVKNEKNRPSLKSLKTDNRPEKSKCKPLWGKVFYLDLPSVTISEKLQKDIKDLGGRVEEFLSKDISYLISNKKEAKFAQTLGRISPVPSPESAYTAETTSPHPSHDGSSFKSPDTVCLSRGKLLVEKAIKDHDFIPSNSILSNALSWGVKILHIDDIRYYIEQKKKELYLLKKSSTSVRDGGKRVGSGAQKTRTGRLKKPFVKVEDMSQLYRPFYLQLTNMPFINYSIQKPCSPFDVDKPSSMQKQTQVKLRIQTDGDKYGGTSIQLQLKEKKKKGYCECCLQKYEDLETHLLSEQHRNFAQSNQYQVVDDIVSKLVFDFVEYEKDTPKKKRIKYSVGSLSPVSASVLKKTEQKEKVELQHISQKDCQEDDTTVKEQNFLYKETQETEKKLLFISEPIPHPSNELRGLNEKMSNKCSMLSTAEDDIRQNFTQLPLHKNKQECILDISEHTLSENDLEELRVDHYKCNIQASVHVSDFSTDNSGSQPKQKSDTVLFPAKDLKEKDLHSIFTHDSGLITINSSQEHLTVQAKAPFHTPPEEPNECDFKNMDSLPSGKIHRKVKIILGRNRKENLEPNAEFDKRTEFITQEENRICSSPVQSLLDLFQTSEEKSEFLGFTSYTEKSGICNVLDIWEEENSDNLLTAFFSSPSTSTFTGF

As for `CCOC(=O)C1=C(Nc2ccc(C)cc2C)OC(=Cc2c[nH]c3ncccc23)C1=O` [Compound 24, Ethyl 5-((1H-pyrrolo[2,3-b]pyridin-3-yl)methylene)-2-((2,4-dimethylphenyl)amino)-4-oxo-4,5-dihydrofuran-3-carboxylate], in data set [1], the IC50 (commonly the concentration at which inhibition is half-maximal) was found to be 3.9 nM. Moreover, the “HLM % (remaining % of parent compound)” value in data set [2] turned out to be 63%. Besides, the “MLM % (remaining % of parent compound)” value in data set [3] came to 30%.
For `CCOC(=O)C1=C(Nc2ccc(F)cc2)OC(=Cc2c[nH]c3ncccc23)C1=O` [Compound 20, Ethyl 5-((1H-pyrrolo[2,3-b]pyridin-3-yl)methylene)-2-((4-fluorophenyl)amino)-4-oxo-4,5-dihydrofuran-3-carboxylate] the same measures were 4.3 nM, 52% and 25%.
For `CCOC(=O)C1=C(Nc2ccccc2F)OC(=Cc2c[nH]c3ncccc23)C1=O` [Compound 19, Ethyl 5-[(1H-pyrrolo[2,3-b]pyridin-3-yl)methylene]-2-[(2-fluorophenyl)amino]-4-oxo-4,5-dihydrofuran-3-carboxylate], the IC50 in data set [1] stood at 2.4 nM. The “HLM % (remaining % of parent compound)” value in data set [2] came to 30%. In data set [3], the “MLM % (remaining % of parent compound)” value is reported as 10%.
On to `CCOC(=O)C1=C(Nc2ccccc2)OC(=Cc2c[nH]c3ncccc23)C1=O` [Compound 3, Ethyl 5-((1H-pyrrolo[2,3-b]pyridin-3-yl)methylene)-4-oxo-2-(phenylamino)-4,5-dihydrofuran-3-carboxylate], for which the IC50 in data set [1] is 3.3 nM and 3.8 nM. Besides, the “HLM % (remaining % of parent compound)” value in data set [2] was 23%. Also, the “metabolic stability in human liver microsome (in words)” value in data set [2] (human) was “moderate metabolic stability”. In data set [3], the “MLM % (remaining % of parent compound)” value was 7.9%. In data set [3] (mouse), the “metabolic stability in mice (in words)” value is reported as “rapidly metabolized”. For the same compound, the “stability of the ethyl ester” value in data set [4] (conventional ester hydrolysis conditions: 2N HCl aq./EtOH, 60° C. or 2N NaOH aq./EtOH, 60° C.) is given as “very stable”; in data set [4] (strong basic conditions, hydrolysis required 50% w/v KOH aq., reflux) it was “very stable”. In data set [5], the “fold stronger inhibitory potency at 5 μM ATP than inhibition at 10 μM ATP concentration” value was found to be 21 fold.
`CCOC(=O)C1=C(Nc2ccccc2C)OC(=Cc2c[nH]c3ncccc23)C1=O` [Compound 21, Ethyl 5-((1H-pyrrolo[2,3-b]pyridin-3-yl)methylene)-4-oxo-2-(o-tolylamino)-4,5-dihydrofuran-3-carboxylate]: in data set [1], the half-maximal inhibitory concentration (IC50) was found to be 3.8 nM. Further, the “HLM % (remaining % of parent compound)” value in data set [2] is reported as 53%. For the same compound, the “MLM % (remaining % of parent compound)” value in data set [3] was 24%.
For `CCOC(=O)C1=C(Nc2ccc(OC)cc2)OC(=Cc2c[nH]c3ncccc23)C1=O` [Compound 18, Ethyl 5-((1H-pyrrolo[2,3-b]pyridin-3-yl)methylene)-2-((4-methoxyphenyl)amino)-4-oxo-4,5-dihydrofuran-3-carboxylate] the same measures were 4.9 nM, 33% and 5.1%.
For `CCOC(=O)C1=C(Nc2ccc(F)cc2F)OC(=Cc2c[nH]c3ncccc23)C1=O` [Compound 23, Ethyl 5-((1H-pyrrolo[2,3-b]pyridin-3-yl)methylene)-2-((2,4-difluorophenyl)amino)-4-oxo-4,5-dihydrofuran-3-carboxylate] the same measures were 2.5 nM, 57% and 12%.
